Measurements reported in ChEMBL document CHEMBL1201862, “PubChem BioAssay data set” (2004).
One block for each compound: values may come before it. The source made the active and inactive calls. Unless noted, the calls are words filed in the database; no cut-off is given here.

Legend:
Interleukin-8 [1] = molecular target: T1, Interleukin-8 (Homo sapiens, UniProt P10145); experiment: SAR analysis of GM-Tri-DAP induced IL-8 secretion in MCF-7/NOD1 cells - Set 2. [Related pubchem assays (depositor defined):AID1575, AID1578, AID2333]; format: functional, cell-based
T1 sequence (P10145 whole entry): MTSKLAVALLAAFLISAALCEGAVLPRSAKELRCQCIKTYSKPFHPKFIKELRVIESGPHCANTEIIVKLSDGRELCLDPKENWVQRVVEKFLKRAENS

HEK293 [2] = experiment: SAR analysis of compounds that are cytotoxic to HEK293 - Set 2. [Related pubchem assays (depositor defined):AID1575, AID1578, AID1849, AID2001, AID2333, AID2334, AID2335, AID2337, AID2800]; format: functional, cell-based; conditions: Homo sapiens
Tumor necrosis factor = Tumor necrosis factor (Homo sapiens, UniProt P01375); experiment: TNFa-triggered NF-kB activation inhibitors, SAR follow-up, cell-based, set 3 (AID 2801); format: functional
[3] = molecular target: T2, Nucleotide-binding oligomerization domain-containing protein 2 (Homo sapiens, UniProt Q9HC29); experiment: NOD2 signaling inhibitors, analog potency, SAR follow-up, cell-based, set 3 (AID 2799); format: functional
Interleukin-8 [4] = molecular target: T1, Interleukin-8; experiment: SAR analysis of Tumor necrosis factor alpha (TNF-alpha) induced IL-8 secretion in MCF-7/NOD1 cells - Set 2. [Related pubchem assays (depositor defined):AID1575, AID2250, AID2260]; format: functional, cell-based
[5] = molecular target: T3, Nucleotide-binding oligomerization domain-containing protein 1 (Homo sapiens, UniProt Q9Y239); experiment: SAR analysis of compounds that inhibit NOD1 - Set 3. [Related pubchem assays (depositor defined):AID1566, AID1575, AID1578, AID1849, AID1852, AID2333, AID2335, AID2466]; format: functional
T3 sequence (Q9Y239 whole entry): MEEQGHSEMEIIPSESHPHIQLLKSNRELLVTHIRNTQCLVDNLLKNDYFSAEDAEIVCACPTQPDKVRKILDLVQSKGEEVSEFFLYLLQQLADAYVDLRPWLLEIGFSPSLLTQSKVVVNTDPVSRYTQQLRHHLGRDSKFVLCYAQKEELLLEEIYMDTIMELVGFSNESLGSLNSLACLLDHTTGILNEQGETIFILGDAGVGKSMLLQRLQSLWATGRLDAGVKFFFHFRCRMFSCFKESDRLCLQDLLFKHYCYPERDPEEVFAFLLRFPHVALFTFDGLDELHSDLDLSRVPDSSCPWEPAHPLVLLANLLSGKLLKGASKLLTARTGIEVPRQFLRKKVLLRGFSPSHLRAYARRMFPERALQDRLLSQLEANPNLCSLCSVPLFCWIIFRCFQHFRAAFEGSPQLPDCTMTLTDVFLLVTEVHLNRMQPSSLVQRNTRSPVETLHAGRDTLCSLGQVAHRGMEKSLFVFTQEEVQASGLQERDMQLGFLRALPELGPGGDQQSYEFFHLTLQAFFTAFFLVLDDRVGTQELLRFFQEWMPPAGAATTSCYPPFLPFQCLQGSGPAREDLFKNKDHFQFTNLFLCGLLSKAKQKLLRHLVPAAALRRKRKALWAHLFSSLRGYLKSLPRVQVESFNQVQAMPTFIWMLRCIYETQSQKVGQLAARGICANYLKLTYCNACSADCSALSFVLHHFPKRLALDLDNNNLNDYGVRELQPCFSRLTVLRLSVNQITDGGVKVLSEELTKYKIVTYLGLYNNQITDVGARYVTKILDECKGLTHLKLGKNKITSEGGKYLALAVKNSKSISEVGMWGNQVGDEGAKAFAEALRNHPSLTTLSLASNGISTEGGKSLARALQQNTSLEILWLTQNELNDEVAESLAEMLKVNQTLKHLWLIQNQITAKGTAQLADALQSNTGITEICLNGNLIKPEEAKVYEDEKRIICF

HEK293 [6] = experiment: SAR analysis of compounds that are cytotoxic to HEK293 - Set 3. [Related pubchem assays (depositor defined):AID1575, AID1578, AID1848, AID1849, AID2001, AID2333, AID2334, AID2335, AID2337, AID2469]; format: functional, cell-based; conditions: Homo sapiens
[7] = molecular target: T3, Nucleotide-binding oligomerization domain-containing protein 1; experiment: SAR analysis of NF-kappaB dependent luciferase using DAP as an inducer - Set 2. [Related pubchem assays (depositor defined):AID1566, AID1575, AID1578, AID1579, AID1849, AID1852, AID2264]; format: functional
[8] = molecular target: T2, Nucleotide-binding oligomerization domain-containing protein 2; experiment: NOD2 inhibitors, SAR follow-up, set 2 (AID 2475); format: functional
[9] = molecular target: T4, E3 ubiquitin-protein ligase XIAP (Homo sapiens, UniProt P98170); experiment: SAR analysis of Antagonists of IAP-family anti-apoptotic proteins. [Related pubchem assays (depositor defined):AID1018, AID1449, AID1513, AID1514, AID1638]
[10] = molecular target: T4, E3 ubiquitin-protein ligase XIAP; experiment: SAR analysis of Antagonists of XIAP-Bir3 domain of IAP-family anti-apoptotic proteins. [Related pubchem assays (depositor defined):AID1018, AID1449, AID1513, AID1514, AID1638]
[11] = molecular target: T5, Kappa-type opioid receptor (Homo sapiens, UniProt P41145); experiment: SAR analysis of small molecule antagonists of the kappa opioid receptor via a luminescent beta-arrestin assay - Set 5. [Related pubchem assays (depositor defined):AID1778, AID1785]; format: functional
[12] = molecular target: T5, Kappa-type opioid receptor; experiment: SAR analysis of small molecule antagonists of the kappa opioid receptor via a luminescent beta-arrestin assay - Set 4. [Related pubchem assays (depositor defined):AID1777, AID1778, AID1785, AID1786, AID1966, AID2133, AID2136, AID2285]; format: functional
[13] = decrease of PhoP-driven GFP reporter signal, S. Typhimurium, dose response, PhoP regulon inhibitor project, purified and synthesized compounds, set 2 (AID 2831); format: functional

T5 sequence (P41145 whole entry): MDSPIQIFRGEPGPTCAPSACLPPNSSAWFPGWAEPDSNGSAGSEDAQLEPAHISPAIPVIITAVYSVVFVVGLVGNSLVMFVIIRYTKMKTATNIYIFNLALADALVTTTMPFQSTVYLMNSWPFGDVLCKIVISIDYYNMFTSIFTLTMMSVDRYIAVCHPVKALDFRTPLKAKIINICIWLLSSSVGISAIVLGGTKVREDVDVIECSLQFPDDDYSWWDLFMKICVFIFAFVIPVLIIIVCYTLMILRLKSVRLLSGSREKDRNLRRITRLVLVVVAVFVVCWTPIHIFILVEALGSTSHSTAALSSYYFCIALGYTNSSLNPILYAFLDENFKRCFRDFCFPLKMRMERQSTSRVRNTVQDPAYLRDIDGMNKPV
T2 sequence (Q9HC29 whole entry, the tested form may be a part): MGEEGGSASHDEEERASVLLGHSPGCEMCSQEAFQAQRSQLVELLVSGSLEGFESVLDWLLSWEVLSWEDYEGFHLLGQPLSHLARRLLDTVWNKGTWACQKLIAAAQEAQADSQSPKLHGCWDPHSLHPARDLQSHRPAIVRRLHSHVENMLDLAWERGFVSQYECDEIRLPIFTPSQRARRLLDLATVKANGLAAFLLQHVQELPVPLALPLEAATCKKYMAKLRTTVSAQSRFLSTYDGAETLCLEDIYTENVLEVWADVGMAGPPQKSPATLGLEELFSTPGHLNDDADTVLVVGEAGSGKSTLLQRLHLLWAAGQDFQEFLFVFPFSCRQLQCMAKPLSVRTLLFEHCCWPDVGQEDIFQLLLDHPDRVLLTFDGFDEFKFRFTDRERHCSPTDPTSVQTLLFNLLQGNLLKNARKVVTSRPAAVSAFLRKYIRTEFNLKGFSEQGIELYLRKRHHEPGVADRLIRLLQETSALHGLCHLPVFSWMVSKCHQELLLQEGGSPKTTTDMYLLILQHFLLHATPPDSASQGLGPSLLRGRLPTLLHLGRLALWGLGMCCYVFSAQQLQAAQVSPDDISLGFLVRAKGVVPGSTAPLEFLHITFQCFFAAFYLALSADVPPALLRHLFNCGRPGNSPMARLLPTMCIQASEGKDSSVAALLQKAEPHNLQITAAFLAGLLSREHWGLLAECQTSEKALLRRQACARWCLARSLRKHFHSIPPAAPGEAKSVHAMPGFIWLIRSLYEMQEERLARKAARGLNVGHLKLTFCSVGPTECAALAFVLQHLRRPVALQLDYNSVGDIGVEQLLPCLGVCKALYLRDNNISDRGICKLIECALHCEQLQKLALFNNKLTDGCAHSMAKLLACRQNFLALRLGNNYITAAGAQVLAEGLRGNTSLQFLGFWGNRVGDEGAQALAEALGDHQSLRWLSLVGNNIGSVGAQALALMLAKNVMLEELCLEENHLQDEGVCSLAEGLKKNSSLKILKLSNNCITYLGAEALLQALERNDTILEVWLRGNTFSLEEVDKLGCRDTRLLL
T4 sequence (P98170 whole entry, the tested form may be a part): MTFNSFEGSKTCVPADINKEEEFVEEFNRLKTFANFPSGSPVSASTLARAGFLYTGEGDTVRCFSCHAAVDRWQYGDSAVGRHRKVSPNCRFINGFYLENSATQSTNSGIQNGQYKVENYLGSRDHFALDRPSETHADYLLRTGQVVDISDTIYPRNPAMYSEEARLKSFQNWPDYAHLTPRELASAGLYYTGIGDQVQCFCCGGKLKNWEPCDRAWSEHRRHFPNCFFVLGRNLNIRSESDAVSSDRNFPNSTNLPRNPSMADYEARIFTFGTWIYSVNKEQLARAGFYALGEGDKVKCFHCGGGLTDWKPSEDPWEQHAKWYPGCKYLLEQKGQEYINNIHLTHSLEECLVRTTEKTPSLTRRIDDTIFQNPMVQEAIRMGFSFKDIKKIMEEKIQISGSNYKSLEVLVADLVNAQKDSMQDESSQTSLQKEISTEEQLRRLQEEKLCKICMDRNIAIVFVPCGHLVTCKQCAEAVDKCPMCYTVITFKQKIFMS
Chain of Tumor necrosis factor (P01375 whole entry, the tested form may be a part): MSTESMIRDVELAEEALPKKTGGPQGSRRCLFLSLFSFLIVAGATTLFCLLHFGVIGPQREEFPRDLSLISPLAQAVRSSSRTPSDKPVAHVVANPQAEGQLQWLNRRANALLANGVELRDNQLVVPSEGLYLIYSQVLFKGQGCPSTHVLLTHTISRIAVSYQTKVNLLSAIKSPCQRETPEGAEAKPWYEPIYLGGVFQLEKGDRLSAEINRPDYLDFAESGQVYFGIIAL

Compound: CCCCCn1c(SCCc2ccccc2)nc2c1c(=O)[nH]c(=O)n2C
IC50 (Interleukin-8 [1]): 4.1 µM (active)
IC50 (HEK293 [2]): > 20 µM (inactive)
IC50 (Tumor necrosis factor): > 20 µM (inactive)
IC50 [3]: > 20 µM (inactive)
IC50 (Interleukin-8 [4]): > 25 µM (inactive)
IC50 [5]: 1.74 µM (active)
IC50 (HEK293 [6]): > 20 µM (inactive)
IC50 [7]: > 25 µM (inactive)
IC50 [8]: > 20 µM (inactive)

IC50 [9]: 4.7 µM (active)
IC50 [10]: 132 µM (active)
Compound: CN[C@@H](C)C(=O)N[C@H](C(=O)N[C@@H](C)C(=O)NNc1ccccc1)C(C)C

IC50 [11]: > 20 µM (inactive)
IC50 [12]: > 20 µM (inactive)
Compound: Cc1ccc(S(=O)(=O)NCc2ccc(C(=O)NCCN(Cc3ccc([N+](=O)[O-])cc3)C(C)C)cc2)cc1

IC50 [13]: > 125 µM (active)
Compound: OC1=C2C(=Nc3ccccc3SC2c2ccco2)c2ccccc21 (centres undefined)
